Measured values as given in US20240269170A1, “Treatment of Inflammatory Conditions or Diseases” (Queen Mary University of London, priority 2021, published 2024).

Test system: G6PI peptide induced arthritis in DBA/1 mice
Assay: G6PI peptide induced arthritis, MCTR3 treatment
Format: in vivo, mouse
Description: (A-D) K/B×N serum (100 μL via intraperitoneal injection, i.p.) was administered to C57BL/6 mice on days 0, 2 and 8 to initiate and prolong inflammatory arthritis. Mice were treated 1 μg/mouse MCTR3 or vehicle (PBS+0.1% EtOH) on day 10, 12 and 14 via intravenous (i.v.) injection. Disease course was assessed by evaluating A) clinical scores and B) paw oedema daily. Results are mean±SEM, n=9 mice per group. Statistical differences were evaluated using a Two-Way ANOVA. Arrows denote days when MCTR3 was administered. (C,D) paws were harvested on day 25, and cells liberated from the joints and the expression of phenotypic markers was evaluated on joint macrophages using flow cytometry and PLS-DA. (C) scores plot with highlighted regions denoting the clusters representing cells from each group and (D) VIP scores for each of the markers evaluated. Each dot in the score plot represents a separate mouse. (E-H) Arthritis was induced in DBA/1 mice by administration of 10 μg G6PI in CFA on Day 0. On day 24, 26 and 28 (denoted in blue arrows), mice were administered 1 μg/mouse MCTR3 or vehicle (PBS+0.1% EtOH) i.v. and (E) clinical scores and (F) paw oedema were measured. Results are mean±SEM, n=mice 7 per group from 2 separate experiments. Statistical differences were evaluated using a Two-Way ANOVA. (G-H) paws were harvested on day 36, and cells liberated from the joints and the expression of phenotypic markers was evaluated on joint macrophages using flow cytometry and PLS-DA. (G) scores plot with highlighted regions denoting the clusters representing cells from each group and (H) VIP scores for each of the markers evaluated. Each dot in the score plot represents a separate mouse.
FIG. 10: MCTR3 promotes bone and cartilage repair in arthritic mice. G6PI peptide (10 μg/mouse) in CFA was administered to DBA/1 mice ([…]) and mice were treated with either vehicle (PBS+0.1% EtOH) or 1 μg/mouse MCTR3 i.v. on day 24, 26 and 28. On day 36, hind paws were harvested for histological analysis. A) Representative images from knee joints from a vehicle and MCTR3 treated mouse stained with Safranin-O and B) quantitative analysis of Safranin O staining. Results are mean±SEM n=5 mice per group. C-D) microCT analysis was performed in vivo on day 24 and 35, to evaluate bone erosion in the arthritic knees. […] Results are mean±SEM and expressed as percent change from values obtained on day 24 for each mouse. n=4 mice per group. Statistical differences were evaluated using a Mann-Whitney U test.
We next assessed whether the protective activities of MCTR3 were retained in a model of adaptive immune system driven arthritis, using the glucose-6-phosphate isomerase peptide driven model of inflammatory arthritis (Schubert et al., 2004, J Immunol 172, 4503-4509). Here, administration of MCTR3 during the course of arthritic inflammation also led to a reduction in joint inflammation as measured by a reduction in both clinical scores and joint oedema (FIG. 1E,F). […] This shift in phenotype was linked with an upregulation of three phenotypic markers, including Arg-1 and CD11b, in cells obtained from joints of MCTR3 treated mice (FIG. 1H).
Since one of the main debilitating features of arthritis is bone erosion, we next determined whether the joint protective actions of MCTR3 also extended to the bone. For this purpose, we used microCT analysis to investigate bone volume in arthritic joints, comparing bone volumes on day 24, prior to MCTR3 treatment, to those at day 35. […] We next queried whether these bone protective activities of
G6PI peptide induced arthritis: Antigen DBA/1 mice were immunised with a G6PI emulsion (120 μL/mouse), prepared by sonication of 10 μg G6PI peptide (Sequence: IWYINCFGCETHAML; Cambridge Peptides Ltd.) in 50 μL complete Freund's adjuvant (CFA) and 50 μL DPBS^−/− per mouse (Schubert et al., 2004, J Immunol 172, 4503-4509), via intradermal injection at the base of the tail to initiate inflammatory arthritis. […]

[1] = 1 μg/mouse i.v. on day 24, 26 and 28
[2] = 1 μg/mouse i.v., day 36, flow cytometry

**Q.** For `CC/C=C\C/C=C\C[C@H](O)[C@@H](/C=C/C=C/C=C\C/C=C\CCC(=O)O)SC[C@H](N)C(=O)O` [MCTR3, 13R-cysteinyl, 14S-hydroxy-4Z, 7Z, 9E, 11E, 13R, 14S, 16Z, 19Z-docosahexaenoic acid], which clinical scores [1] is on record?
**A.** reduction

**Q.** And the joint oedema [1]?
**A.** reduction

**Q.** What about the “safranin O-staining in joints (glycosaminoglycan content)” value (1 μg/mouse i.v. on day 24, 26 and 28, day 36) of the same compound?
**A.** significantly higher

**Q.** What about the “bone volume in arthritic knees (microCT)” value (1 μg/mouse i.v., day 35 compared with day 24) of the same compound?
**A.** increased

**Q.** And the “Arg-1 in joint macrophages” value [2]?
**A.** upregulation

**Q.** And the “CD11b in joint macrophages” value [2]?
**A.** upregulation
